Reference: US10287297B2, “Epoxyazulene derivatives useful for treating cancer and diabetes” (The United States of America, as represented by the …, priority 2015, dated 2019)

Legend:
Type in all cases: cell-based
UO-31 = assay: NCI 60 cell assay, renal UO-31; settings: Homo sapiens, 48 h; UO-31 (renal); drug exposure two days, SRB endpoint; read-out: GI-50 value
Method: (§1) Samples were tested in the standard National Cancer Institute 60-cell line protocol. First, they were tested against all 60 cell lines in a single final concentration of 10 micromolar. Then, they were separately tested in five 10-fold dilutions. The drug exposure was two days, with an SRB endpoint.

IGROV1 = assay: NCI 60 cell assay, ovarian IGROV1; settings: Homo sapiens, IGROV-1, 48 h, drug exposure two days, SRB endpoint, read-out: GI-50 value
Method: as §1

NCI-H322M = assay: NCI 60 cell assay, NSCLC NCI-H322M; settings: Homo sapiens, 48 h, drug exposure two days, SRB endpoint, read-out: GI-50 value
Method: as §1

MDA-MB-435 = assay: NCI 60 cell assay, melanoma MDA-MB-435; settings: Homo sapiens, 48 h; MDA-MB-435 (melanoma); drug exposure two days, SRB endpoint; read-out: GI-50 value
Method: as §1

OVCAR-4 = assay: NCI 60 cell assay, ovarian OVCAR-4; settings: Homo sapiens, 48 h; OVCAR-4 (ovarian); drug exposure two days, SRB endpoint; read-out: GI-50 value
Method: as §1

HT29 = assay: NCI 60 cell assay, colon HT29; settings: Homo sapiens, HT-29, 48 h, drug exposure two days, SRB endpoint, read-out: GI-50 value
Method: as §1

DU-145 = assay: NCI 60 cell assay, prostate DU-145; settings: Homo sapiens, 48 h; DU-145 (prostate); drug exposure two days, SRB endpoint; read-out: GI-50 value
Method: as §1

UACC-257 = assay: NCI 60 cell assay, melanoma UACC-257; settings: Homo sapiens, 48 h; UACC-257 (melanoma); drug exposure two days, SRB endpoint; read-out: GI-50 value
Method: as §1

HCT-116 = assay: NCI 60 cell assay, colon HCT-116; settings: Homo sapiens, 48 h; HCT-116 (colon); drug exposure two days, SRB endpoint; read-out: GI-50 value
Method: as §1

MCF7 = assay: NCI 60 cell assay, breast MCF7; settings: Homo sapiens, 48 h, drug exposure two days, SRB endpoint, read-out: GI-50 value
Method: as §1

NCI-H226 = assay: NCI 60 cell assay, NSCLC NCI-H226; settings: Homo sapiens, 48 h, drug exposure two days, SRB endpoint, read-out: GI-50 value
Method: as §1

COLO 205 = assay: NCI 60 cell assay, colon COLO 205; settings: Homo sapiens, 48 h; COLO 205 (colon); drug exposure two days, SRB endpoint; read-out: GI-50 value
Method: as §1

ACHN = assay: NCI 60 cell assay, renal ACHN; settings: Homo sapiens, 48 h, drug exposure two days, SRB endpoint, read-out: GI-50 value
Method: as §1

SK-MEL-28 = assay: NCI 60 cell assay, melanoma SK-MEL-28; settings: Homo sapiens, 48 h; SK-MEL-28 (melanoma); drug exposure two days, SRB endpoint; read-out: GI-50 value
Method: as §1

KM12 = assay: NCI 60 cell assay, colon KM12; settings: Homo sapiens, 48 h, drug exposure two days, SRB endpoint, read-out: GI-50 value
Method: as §1

K-562 = assay: NCI 60 cell assay, leukemia K-562; settings: Homo sapiens, K562, 48 h; K-562 (leukemia); drug exposure two days, SRB endpoint; read-out: GI-50 value
Method: as §1

MDA-MB-468 = assay: NCI 60 cell assay, breast MDA-MB-468; settings: Homo sapiens, 48 h; MDA-MB-468 (breast); drug exposure two days, SRB endpoint; read-out: GI-50 value
Method: as §1

OVCAR-5 = assay: NCI 60 cell assay, ovarian OVCAR-5; settings: Homo sapiens, 48 h; OVCAR-5 (ovarian); drug exposure two days, SRB endpoint; read-out: GI-50 value
Method: as §1

NCI-H23 = assay: NCI 60 cell assay, NSCLC NCI-H23; settings: Homo sapiens, 48 h, drug exposure two days, SRB endpoint, read-out: GI-50 value
Method: as §1

HOP-92 = assay: NCI 60 cell assay, NSCLC HOP-92; settings: Homo sapiens, 48 h; HOP-92 (NSCLC); drug exposure two days, SRB endpoint; read-out: GI-50 value
Method: as §1

HCC-2998 = assay: NCI 60 cell assay, colon HCC-2998; settings: Homo sapiens, 48 h; HCC-2998 (colon); drug exposure two days, SRB endpoint; read-out: GI-50 value
Method: as §1

RPMI-8226 = assay: NCI 60 cell assay, leukemia RPMI-8226; settings: Homo sapiens, 48 h; RPMI-8226 (leukemia); drug exposure two days, SRB endpoint; read-out: GI-50 value
Method: as §1

OVCAR-3 = assay: NCI 60 cell assay, ovarian OVCAR-3; settings: Homo sapiens, 48 h; OVCAR-3 (ovarian); drug exposure two days, SRB endpoint; read-out: GI-50 value
Method: as §1

NCI-H460 = assay: NCI 60 cell assay, NSCLC NCI-H460; settings: Homo sapiens, 48 h, drug exposure two days, SRB endpoint, read-out: GI-50 value
Method: as §1

BT-549 = assay: NCI 60 cell assay, breast BT-549; settings: Homo sapiens, 48 h; BT-549 (breast); drug exposure two days, SRB endpoint; read-out: GI-50 value
Method: as §1

SW-620 = assay: NCI 60 cell assay, colon SW-620; settings: Homo sapiens, 48 h; SW-620 (colon); drug exposure two days, SRB endpoint; read-out: GI-50 value
Method: as §1

HS 578T = assay: NCI 60 cell assay, breast HS 578T; settings: Homo sapiens, 48 h; HS 578T (breast); drug exposure two days, SRB endpoint; read-out: GI-50 value
Method: as §1

SK-MEL-5 = assay: NCI 60 cell assay, melanoma SK-MEL-5; settings: Homo sapiens, 48 h; SK-MEL-5 (melanoma); drug exposure two days, SRB endpoint; read-out: GI-50 value
Method: as §1

A498 = assay: NCI 60 cell assay, renal A498; settings: Homo sapiens, 48 h, drug exposure two days, SRB endpoint, read-out: GI-50 value
Method: as §1

PC-3 = assay: NCI 60 cell assay, prostate PC-3; settings: Homo sapiens, 48 h; PC-3 (prostate); drug exposure two days, SRB endpoint; read-out: GI-50 value
Method: as §1

U251 = assay: NCI 60 cell assay, CNS U251; settings: Homo sapiens, U-251, 48 h, drug exposure two days, SRB endpoint, read-out: GI-50 value
Method: as §1

SF-295 = assay: NCI 60 cell assay, CNS SF-295; settings: Homo sapiens, 48 h; SF-295 (CNS); drug exposure two days, SRB endpoint; read-out: GI-50 value
Method: as §1

NCI-H522 = assay: NCI 60 cell assay, NSCLC NCI-H522; settings: Homo sapiens, 48 h, drug exposure two days, SRB endpoint, read-out: GI-50 value
Method: as §1

CC1=C2[C@@H](CC1)[C@]1(C)O[C@@](C3CCCCC3)(C[C@H]1OC(=O)CO)[C@H]2OC(=O)C=Cc1ccccc1 [(Iq), (3aR,4S,5R,7R,8S)-7-cyclohexyl-5-(2-hydroxyacetoxy)-1,4-dimethyl-2,3,3a,4,5,6,7,8-octahydro-4,7-epoxyazulen-8-yl cinnamate]
GI50 (UO-31): 0.46 µM
GI50 (IGROV1): 19 µM
GI50 (NCI-H322M): 17 µM
GI50 (MDA-MB-435): 15 µM
GI50 (OVCAR-4): 15 µM
GI50 (HT29): 12 µM
GI50 (DU-145): 13 µM
GI50 (UACC-257): 14 µM
GI50 (HCT-116): 9 µM
GI50 (MCF7): 4.5 µM
GI50 (NCI-H226): 12 µM
GI50 (COLO 205): 15 µM
GI50 (ACHN): 0.035 µM
GI50 (SK-MEL-28): 17 µM
GI50 (KM12): 14 µM
GI50 (K-562): 13 µM
GI50 (MDA-MB-468): 12 µM
GI50 (OVCAR-5): 19 µM
GI50 (NCI-H23): 14 µM
GI50 (HOP-92): 6 µM
GI50 (HCC-2998): 13 µM
GI50 (RPMI-8226): 10 µM
GI50 (OVCAR-3): 13 µM
GI50 (NCI-H460): 13 µM
GI50 (BT-549): 0.5 µM
GI50 (SW-620): 14 µM
GI50 (HS 578T): 0.03 µM
GI50 (SK-MEL-5): 14 µM
GI50 (A498): 0.021 µM
GI50 (PC-3): 12 µM
GI50 (U251): 13 µM
GI50 (SF-295): 12 µM
GI50 (NCI-H522): 15 µM

CC1=C2[C@@H](CC1)[C@]1(C)O[C@@](c3ccccc3)(C[C@H]1OC(=O)CO)[C@H]2OC(=O)C=Cc1ccccc1 [(Ir), (3aR,4S,5R,7R,8S)-5-(2-hydroxyacetoxy)-1,4-dimethyl-7-phenyl-2,3,3a,4,5,6,7,8-octahydro-4,7-epoxyazulen-8-yl cinnamate]
GI50 (UO-31): 0.55 µM
GI50 (IGROV1): 24 µM
GI50 (NCI-H322M): 22 µM
GI50 (MDA-MB-435): 17 µM
GI50 (OVCAR-4): 15 µM
GI50 (HT29): 16 µM
GI50 (DU-145): 17 µM
GI50 (UACC-257): 19 µM
GI50 (HCT-116): 15 µM
GI50 (MCF7): 10 µM
GI50 (NCI-H226): 16 µM
GI50 (COLO 205): 15 µM
GI50 (ACHN): 0.035 µM
GI50 (SK-MEL-28): 18 µM
GI50 (KM12): 16 µM
GI50 (K-562): 16 µM
GI50 (MDA-MB-468): 15 µM
GI50 (OVCAR-5): 22 µM
GI50 (NCI-H23): 17 µM
GI50 (HOP-92): 14 µM
GI50 (HCC-2998): 15 µM
GI50 (RPMI-8226): 13 µM
GI50 (OVCAR-3): 15 µM
GI50 (NCI-H460): 15 µM
GI50 (BT-549): 0.71 µM
GI50 (SW-620): 21 µM
GI50 (HS 578T): 0.033 µM
GI50 (SK-MEL-5): 15 µM
GI50 (A498): 0.089 µM
GI50 (PC-3): 10 µM
GI50 (U251): 13 µM
GI50 (SF-295): 14 µM
GI50 (NCI-H522): 17 µM

CC1=C2[C@@H](CC1)[C@]1(C)O[C@@](C(C)C)(C[C@H]1OC(=O)CO)[C@H]2OC(=O)/C=C/c1ccccc1 [Compound (Ih)]
GI50 (UO-31): 0.04 µM
GI50 (IGROV1): 46 µM
GI50 (NCI-H322M): 43 µM
GI50 (MDA-MB-435): 43 µM
GI50 (OVCAR-4): 35 µM
GI50 (HT29): 39 µM
GI50 (DU-145): 41 µM
GI50 (UACC-257): 40 µM
GI50 (HCT-116): 33 µM
GI50 (MCF7): 32 µM
GI50 (NCI-H226): 35 µM
GI50 (COLO 205): 44 µM
GI50 (ACHN): 0.022 µM
GI50 (SK-MEL-28): 42 µM
GI50 (KM12): 40 µM
GI50 (K-562): 38 µM
GI50 (MDA-MB-468): 33 µM
GI50 (OVCAR-5): 41 µM
GI50 (NCI-H23): 42 µM
GI50 (HOP-92): 100 µM
GI50 (HCC-2998): 100 µM
GI50 (RPMI-8226): 27 µM
GI50 (OVCAR-3): 39 µM
GI50 (NCI-H460): 37 µM
GI50 (BT-549): 0.14 µM
GI50 (SW-620): 40 µM
GI50 (HS 578T): 0.015 µM
GI50 (SK-MEL-5): 35 µM
GI50 (A498): 0.034 µM
GI50 (PC-3): 26 µM
GI50 (U251): 35 µM
GI50 (SF-295): 40 µM
GI50 (NCI-H522): 40 µM
